Measurements: patent US20080107603A1, “Neuroprotectant methods, compositions, and screening methods thereof” (priority 2002, published 2008)
Where two headings read alike, the source gives them in different places.

Tests used:
PC12 cells [1] = assay: Mitochondrial membrane potential (ΔΨm) by TMRE fluorescence; type: cell-based, Rat; settings: 25 μM Aβ25-35; pretreatment of EGT (0.5 mM, 1 mM)
Experimental: To measure the mitochondrial membrane potential (ΔΨm), the lipophilic cationic probe TMRE was used. After treatment with Aβ25-35 (25 μM) for 24 h in the presence or absence of EGT, cells (1×10^4 cells/1 ml in 4-well chamber) were rinsed with PBS, and TME (150 nM) was loaded. After 30 min incubation at 37° C., cells were examined under a confocal microscope (LEICA TCS SP).

[2] = tested on: retinal neurons in the retinal ganglion cell layer; assay: NMDA retinal model (intravitreal NMDA, cell counts in retinal wholemounts); type: in vivo, Sprague-Dawley rats
Experimental: Young adult female Sprague-Dawley rats were used in the present experiments. The animals were supplied by Harlan, England and maintained in the Comparative Biology Unit at Charing Cross Hospital Campus, Imperial College. Animal procedures used were in accordance to regulations of Home Office, UK. The animals were divided into four groups. The first group consists of 6 normal rats that received no treatment. A further 9 animals were anesthetized with. Hypnorm™ (0.02 mg of fentanyl citrate and 0.54 mg fluanisone/100 g body weight) and Hypnovel™ (0.27 mg midazolam/100 g body weight) before they received unilateral intravitreal injection of 5 μl of 4 mM NMDA to the vitreous body of the left eyes, with the uninjected right eyes served as controls. Six of the experimental animals injected with NMDA received an additional intraperitoneal injection of L-ergothioneine 0.2 ml of 70 mg/ml (n=3), or phosphate buffer saline (PBS) as vehicle control 24 h and 30 min before injection of NMDA.
Further intraperitoneal injection of L-ergothioneine, or PBS was performed at 1 h, 24 h, 48 h and 72 h time points, and 3 injections per week for another three weeks. Six weeks after injection of NMDA, all animals were anaesthetized deeply again and perfused with physiological saline followed by 4% paraformaldehyde in phosphate buffer (pH 7.4). The eyeballs were collected in the same fixative and post-fixed for another half an hour before the retinas were dissected out in PBS. For each retina, four radial cuts were made before the retinas were flatly mounted onto gelatin-coated slides, and air-dried slowly in a moist chamber for 2-3 days.
The retinal whole-mounts were then stained for cresyl violet and cover slipped. Analysis was performed under a Wild microscope equipped with a camera lucida drawing tube. The number of retinal neurons in the retinal ganglion cell layer was counted and cell sizes measured at a magnification of 300× and in an area of 150×150 μm in the central, intermediate and peripheral parts of the four retinal quadrants. The neurons counted were divided into two groups with somata smaller than 6 μm, or equal to or larger than 6 μm in diameter. The majority of larger neurons are retinal ganglion cells while smaller somata are primarily non-ganglion cells or displaced amacrine cells (Perry (1981) Neuroscience 6:931-944). The numbers of cells were: counted in a total of 12 fields of individual retinas an analyzed statistically. The data is expressed as mean±S.E.M. Differences between values were compared by one-way analysis of variance (ANOVA).

PC12 cells [3] = assay: Cell death induced by peroxynitrite generating SIN-1 (MTT); type: cell-based, Rat; settings: MTT reduction assay
Experimental: The MTT assay is a sensitive measurement of the normal metabolic status of cells, particularly that of mitochondria, which reflects early cellular redox changes. After incubation, cells were treated with the MTT solution (final concentration, 1 mg/ml) for 2 h. The dark blue formazan crystals formed in intact cells were dissolved in DMSO, and absorbance at 570 nm was measured with a microplate reader. Results were expressed as the percentage (%) of MTT reduction, assuming that the absorbance of control cells was 100%.

[4] = Ox; cited from earlier work
PC12 cells [5] = assay: TUNEL, Aβ25-35-induced apoptosis; type: cell-based, Rat; settings: 25 μM Aβ25-35, 36 h; EGT at 0.5 mM or 1 mM
Experimental: The commercially available in situ death detection kit (Boehringer Mannheim product, Manheim, Germany) was utilized to detect DNA fragmentation. The PC12 cells (5×10^5 cells/1.5 ml in chamber slide) were fixed for 30 min in 10% neutral buffered-formalin solution at room temperature. Endogenous peroxidase was inactivated by incubation with 0.3% (v/v) hydrogen peroxide in methanol for 30 min at room temperature and further incubated in a permeabilizing solution (0.1% sodium citrate and 0.1% Triton X-100) for 2 min at 4° C. The cells were labeled by incubation with the TUNEL reaction mixture for 60 min at 37° C. followed by labeling with peroxidase-conjugated anti-fluorescein anti-goat antibody (Fab fragment) for additional 30 min. After staining with diaminobenzidine for 10 min, cells were rinsed with phosphate-buffered saline (PBS) and mounted with 50% glycerol.

[6] = Man; cited from earlier work
peroxynitrite = assay: Intracellular peroxynitrite formation (DHR123 fluorescence); type: cell-based, Rat; settings: 25 μM Aβ25-35, 36 h; L-ergothioneine present in the media
Experimental: To monitor intracellular formation of peroxynitrite, the fluorescent probe DHR123 was used. DHR123 is lipophilic and readily diffuses across cell membranes. Upon oxidation of DHR to fluorescent rhodamine, one of the two covalent amino groups tautomerizes to a changed imino, effectively trapping rhodamine within cells. DHR is not oxidized by nitric oxide (NO) but peroxynitrite effectively oxidizes it. After treatment with Aβ25-35 (25 μM) for 36 h in the presence or absence of L-ergothioneine, cells (1×10^4 cells/1 ml in 4-well chamber slide) were rinsed with saline A, and 10 μM DHR in saline A containing 5% fetal bovine serum was loaded. After 20 min incubation at 37 C, cells were examined under a confocal microscope equipped with an argon laser (488 nm; 200 mW). To quntitate peroxynitrite generation in response to Aβ25-35, total peroxynitrite production (basal+incease) was divided by basal peroxynitrite generation. Changes in fluorescence intensity are expressed as a percentage of the control.

[7] = NMDA-injected retina, L-ergothioneine i.p. 0.2 ml of 70 mg/ml, 6 weeks after NMDA
[8] = uninjected control eyes of L-ergothioneine treated animals

C[N+](C)(C)[C@@H](Cc1c[nH]c(=S)[nH]1)C(=O)[O-] [L-ergothioneine, 2-mercaptohistidine trimethylbetaine]
Aβ25-35-induced dissipation of ΔΨm (PC12 cells [1]): significantly blocked | neuroprotective effect ([2]; NMDA retinal model, versus PBS): significant neuroprotective effect | loss of ganglion cells [2, 7]: 44% | loss of small or non-ganglion cells [2, 7]: 31% | loss of ganglion cells [2, 8]: 7% | loss of non-ganglion cells [2, 8]: 4% | cytotoxicity induced by the peroxynitrite releasing compound SIN-1 (PC12 cells [3]): selectively protected | L-Ergothioneine Concentration (mg/100 ml blood) [4]: 0.5-2 mg/100 ml blood | proportion of TUNEL-positive cells (PC12 cells [5]): lowered the proportion of TUNEL-positive cells | L-Ergothioneine Concentration (mg/100 ml blood) [6]: 1-4 mg/100 ml blood | intracellular peroxynitrite formation (peroxynitrite): significantly reduced
